Patent US9682925B2, “Cyclopropaneamine compound” (TAKEDA PHARMACEUTICAL COMPANY LIMITED, priority 2011, dated 2017)
Counter-ions that a name gives are not always drawn.

Columns and labels:
Assay type in all cases: biochemical
human LSD1(171-852) = target: T1, human LSD1(171-852) (Homo sapiens, UniProt O60341); assay: Measurement of LSD1 inhibitory activity (time-resolved fluorescence, biotin-histone H3 mono methylated K4 peptide); conditions: read-out: LSD1 IC50 value
T1 construct: to give hLSD1(171-852) purified product; made in house; host or cells: Escherichia coli C43(DE3) pLysS
Method: When the turbidity reached 600 Klett units, the culture temperature was changed to 16° C., IPTG having a final concentration of 0.5 mM was added to induce expression, and the cells were cultured further for 21 hr. The culture medium was centrifuged at 9,000 g for 10 min, and Escherichia coli pellets were recovered.
Escherichia coli pellets in 9 L of the culture medium were suspended in 1340 mL of an extraction buffer (PBS, 5% (V/V) Glycerol), and 6700 units of Benzonase (Merck) were added. Using Branson ultrasonic disintegrator, the suspension was disrupted by ultrasonication for 3 min, and centrifuged at 33,000 g for 20 min, and the supernatant was recovered.
(5) Measurement of LSD1 Inhibitory Activity
After reaction at room temperature for 20 min, 1 mM 2-PCPA solution (5 μL) was added to terminate the reaction. A detection solution (800 mM potassium fluoride, 0.1% BSA) containing europium-labeled antihistone H3 antibody (Wako Pure Chemical Industries, Ltd.) and Streptavidin-XL665 (Cisbio) was further added by 5 μL, and the mixture was left standing for 60 min. A time-resolved fluorescence (excitation 320 nm, emission 615 nm, 665 nm) was measured by Envision (PerkinElmer). The LSD1 inhibitory rate (%) of the test compound was calculated by the following formula. inhibitory rate (%)=(1−(test compound count−blank)÷(control−blank)×100
The count of the LSD1 enzyme reaction mixture under compound non-addition conditions is indicated as control, and the count under compound non-addition and LSD1 enzyme non-addition conditions is indicated as blank.

MAO-B = target: T2, MAO-B (Homo sapiens, UniProt P27338); assay: Measurement of MAO-B inhibitory activity (MAO-Glo Assay)
T2 construct: purchased Sigma-Aldrich Co. LLC
T2 sequence (P27338 1-520): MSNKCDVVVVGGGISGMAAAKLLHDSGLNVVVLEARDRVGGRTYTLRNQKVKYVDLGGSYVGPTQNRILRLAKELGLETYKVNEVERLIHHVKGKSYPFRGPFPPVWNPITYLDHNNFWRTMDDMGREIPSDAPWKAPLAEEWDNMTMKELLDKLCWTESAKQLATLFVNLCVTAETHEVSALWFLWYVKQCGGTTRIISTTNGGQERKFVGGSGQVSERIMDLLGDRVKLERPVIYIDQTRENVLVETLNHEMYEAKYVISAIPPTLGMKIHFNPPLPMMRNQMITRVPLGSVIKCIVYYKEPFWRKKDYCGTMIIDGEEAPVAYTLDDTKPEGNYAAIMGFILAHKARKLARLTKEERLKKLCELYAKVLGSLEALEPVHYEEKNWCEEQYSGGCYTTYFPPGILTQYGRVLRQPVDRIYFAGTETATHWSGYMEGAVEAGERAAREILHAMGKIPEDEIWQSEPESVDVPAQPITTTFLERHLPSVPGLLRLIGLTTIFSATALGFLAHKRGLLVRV
Method: (2) Measurement of MAO-B Inhibitory Activity
The MAO-B inhibitory activity evaluation described below followed the protocol of MAO-Glo (registered trademark) Assay of Promega KK.
(§1) A test compound dissolved in 4% DMSO was added by 12.5 μL to 25 μL reaction solution (100 mM HEPES (pH 7.5), 5% glycerol, 10% DMSO) containing 400 ng of MAO-B enzyme (Sigma-Aldrich Co. LLC.), and the mixture was reacted at room temperature for 10 min. MAO substrate (Promega KK) (16 μM) was added by 12.5 μL to start the reaction. After reaction at room temperature for 60 min, Luciferine detection reagent (Promega KK) (50 μL) was added to terminate the reaction. After reaction at room temperature for 20 min with stirring, the luminescence was measured by Envision (PerkinElmer). The MAO-B inhibitory rate (%) of the test compound was calculated by the following formula. inhibitory rate (%)=(1−(test compound count−blank)÷(control−blank)×100
The count of the MAO-B enzyme reaction mixture under compound non-addition conditions is indicated as control, and the count under compound non-addition and MAO-B enzyme non-addition conditions is indicated as blank.

MAO-A = target: T3, MAO-A (Homo sapiens, UniProt P21397); assay: Measurement of MAO-A inhibitory activity (MAO-Glo Assay)
T3 construct: purchased Sigma-Aldrich Co. LLC
T3 sequence (P21397 1-527): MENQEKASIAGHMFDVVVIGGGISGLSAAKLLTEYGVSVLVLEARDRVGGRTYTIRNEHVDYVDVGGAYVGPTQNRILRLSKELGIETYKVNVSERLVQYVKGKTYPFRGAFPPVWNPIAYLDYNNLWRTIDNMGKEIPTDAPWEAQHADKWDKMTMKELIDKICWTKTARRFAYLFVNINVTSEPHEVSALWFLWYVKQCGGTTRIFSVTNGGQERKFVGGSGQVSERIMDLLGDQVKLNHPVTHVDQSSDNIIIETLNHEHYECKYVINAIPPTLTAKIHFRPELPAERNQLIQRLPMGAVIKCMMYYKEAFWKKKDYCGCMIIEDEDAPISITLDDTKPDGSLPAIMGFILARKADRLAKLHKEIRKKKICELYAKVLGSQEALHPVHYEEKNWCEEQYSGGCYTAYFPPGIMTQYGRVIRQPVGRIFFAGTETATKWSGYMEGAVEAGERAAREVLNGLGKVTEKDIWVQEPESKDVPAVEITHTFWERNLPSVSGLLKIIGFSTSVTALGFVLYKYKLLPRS
Method: (1) Measurement of MAO-A Inhibitory Activity
The MAO-A inhibitory activity evaluation described below followed the protocol of MAO-Glo (registered trademark) Assay of Promega KK.
as §1, with “glycerol)” for “glycerol, 10% DMSO)”, “MAO-A” for “MAO-B”, “(160” for “(16”
The count of the MAO-A enzyme reaction mixture under compound non-addition conditions is indicated as control, and the count under compound non-addition and MAO-A enzyme non-addition conditions is indicated as blank.

SMILES	IC50 (human LSD1(171-852))	IC50 (MAO-B)	IC50 (MAO-A)
CN1CCC(N[C@H]2C[C@@H]2c2ccc(NC(=O)c3cccc(C(F)(F)F)c3)cc2)CC1 (single isomer, unassigned) [Example 152, N-(4-{(1R,2S) or (1S,2R)-2-[(1-methylpiperidin-4-yl)amino]cyclopropyl}phenyl)-3-(trifluoromethyl)benzamide dihydrochloride]	< 0.1 µM	> 10 µM	> 10 µM
CC(COc1ccccc1)N[C@@H]1C[C@H]1c1ccc(NC(=O)c2ccc(-c3ccccc3)cc2)cc1 (relative stereo) [Example 56, N-(4-{trans-2-[(1-methyl-2-phenoxyethyl)-amino]cyclo-propyl}phenyl)-biphenyl-4-carboxamide]	0.26 µM	> 10 µM	> 10 µM
O=C(Nc1ccc([C@@H]2C[C@H]2N(CC2CC2)CC2CC2)cc1)c1ccc(-c2ccccc2)cc1 (relative stereo) [Example 60, N-(4-{trans-2-[bis(cyclopropylmethyl)amino]cyclopropyl}phenyl)biphenyl-4-carboxamide hydrochloride]	1.9 µM	> 10 µM	> 10 µM
Cc1oc(-c2ccccc2)nc1C(=O)Nc1ccc([C@@H]2C[C@H]2NCC2CC2)cc1 (relative stereo) [Example 122, N-(4-{trans-2-[(cyclopropylmethyl)amino]cyclopropyl}-phenyl)-5-methyl-2-phenyl-1,3-oxazole-4-carboxamide]	< 0.1 µM	> 10 µM	> 10 µM
CC(=O)N1CCCc2ccc(C(=O)Nc3ccc([C@@H]4C[C@H]4NCC4CC4)cc3)cc2C1 (relative stereo) [Example 134, 2-acetyl-N-(4-{trans-2-[(cyclopropyl-methyl)amino]-cyclopropyl}-phenyl)-2,3,4,5-tetrahydro-1H-2-benzazepine-8-carboxamide]	< 0.1 µM	> 10 µM	> 10 µM
Cn1ncc(C(=O)Nc2ccc([C@@H]3C[C@H]3NCC3CC3)cc2)c1C(F)(F)F (relative stereo) [Example 159, N-(4-{trans-2-[(cyclopropylmethyl)amino]cyclopropyl}phenyl)-1-methyl-5-(trifluoromethyl)-1H-pyrazole-4-carboxamide hydrochloride]	< 0.1 µM	> 10 µM	> 10 µM
O=C(Nc1ccc([C@@H]2C[C@H]2NCc2ccc3ccccc3c2)cc1)c1ccccc1 (relative stereo) [Example 18, N-(4-{trans-2-[(naphthalen-2-ylmethyl)amino]-cyclopropyl}-phenyl)benzamide]	< 0.1 µM	> 10 µM	2.6 µM
Cc1cc(C(=O)Nc2ccc([C@@H]3C[C@H]3NCC3CC3)cc2)n(C)n1 (relative stereo) [Example 156, N-(4-{trans-2-[(cyclopropylmethyl)amino]cyclopropyl}phenyl)-1,3-dimethyl-1H-pyrazole-5-carboxamide dihydrochloride]	< 0.1 µM	> 10 µM	> 10 µM
O=C1c2ccccc2CN1c1ccc([C@@H]2C[C@H]2NCC2CC2)cc1 (relative stereo) [Example 144, 2-(4-{trans-2-[(cyclopropylmethyl)amino]cyclopropyl}phenyl)isoindolin-1-one hydrochloride]	0.2 µM	> 10 µM	> 10 µM
COc1ccc(CN[C@@H]2C[C@H]2c2ccc(NC(=O)c3ccc(-c4ccccc4)cc3)cc2)cn1 (relative stereo) [Example 54]	< 0.1 µM	1.5 µM	0.85 µM
CC(N[C@@H]1C[C@H]1c1ccc(NC(=O)c2ccccc2)cc1)c1ccccc1 (relative stereo) [Example 19, N-(4-{trans-2-[(1-phenyl-ethyl)amino]-cyclopropyl}-phenyl)benzamide]	< 0.1 µM	3.2 µM	> 10 µM
O=C(Nc1ccc([C@@H]2C[C@H]2NCC2CC2)cc1)c1c[nH]c2ccccc12 (relative stereo) [Example 127, N-(4-{trans-2-[(cyclopropyl-methyl)amino]cyclo-propyl}phenyl)-1H-indole-3-carboxamide]	0.1 µM	> 10 µM	> 10 µM
O=C(Nc1ccc([C@@H]2C[C@H]2NCC2CC2)cc1)C1CCCCC1 (relative stereo) [Example 141, N-(4-{trans-2-[(cyclopropylmethyl)amino]cyclopropyl}phenyl)-cyclohexanecarboxamide hydrochloride]	< 0.1 µM	> 10 µM	> 10 µM
O=C(Nc1ccc([C@@H]2C[C@H]2NC2CCCCCCC2)cc1)c1ccccc1 (relative stereo) [Example 24, N-{4-[trans-2-(cyclooctyl-amino)cyclo-propyl]phenyl}-benzamide]	< 0.1 µM	> 10 µM	> 10 µM
O=C(Nc1ccc([C@@H]2C[C@H]2NCc2cccnc2)cc1)c1ccccc1 (relative stereo) [Example 12, N-(4-{trans-2-[(pyridin-3-ylmethyl)amino]cyclopropyl}phenyl)-benzamide bis(trifluoroacetate)]	< 0.1 µM	> 10 µM	4.7 µM
O=C(Nc1ccc([C@@H]2C[C@H]2NCc2ccccc2)cc1)c1cccc(N2CCCCC2=O)c1 (relative stereo) [Example 33, N-{4-[trans-2-(benzylamino)cyclopropyl]phenyl}-3-(2-oxopiperidin-1-yl)benzamide]	< 0.1 µM	> 10 µM	> 10 µM
O=C1c2ccccc2C(=O)N1c1ccc([C@@H]2C[C@H]2NCC2CC2)cc1 (relative stereo) [Example 143, 2-(4-{trans-2-[(cyclopropylmethyl)amino]cyclopropyl}phenyl)-1H -isoindole-1,3(2H)-dione hydrochloride]	< 0.1 µM	> 10 µM	4.5 µM
